Patent US20240116985A1, “STAPLED PEPTIDES AND METHODS THEREOF” (priority 2020, published 2024)
Values after ≈ are worked out from the molar mass of the structure shown. Where two headings read alike, the source gives them in different places.

Key:
Solubility in PBS = type: physicochemical; settings: Solubility (uM)
Summary of the method: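 HPLC quantitation of peptide remaining in the PBS supernatant after ultracentrifugation, referenced to a 50 μM solution in DMSO.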

CHI Log D procedure = type: physicochemical; settings: for chromatographic logD: pH 7.4, CHI Log D; for CHI Log D: pH 7.4
[1] = molecular target: T1, full-length B-Catenin (Uniprot ID P35222) (Homo sapiens, UniProt P35222); test: Alphascreen binding assay (beta-catenin / biotin-TCF4 10-53)
T1 construct: 65 nM full-length B-Catenin (Uniprot ID P35222)
T1 sequence (P35222 1-781): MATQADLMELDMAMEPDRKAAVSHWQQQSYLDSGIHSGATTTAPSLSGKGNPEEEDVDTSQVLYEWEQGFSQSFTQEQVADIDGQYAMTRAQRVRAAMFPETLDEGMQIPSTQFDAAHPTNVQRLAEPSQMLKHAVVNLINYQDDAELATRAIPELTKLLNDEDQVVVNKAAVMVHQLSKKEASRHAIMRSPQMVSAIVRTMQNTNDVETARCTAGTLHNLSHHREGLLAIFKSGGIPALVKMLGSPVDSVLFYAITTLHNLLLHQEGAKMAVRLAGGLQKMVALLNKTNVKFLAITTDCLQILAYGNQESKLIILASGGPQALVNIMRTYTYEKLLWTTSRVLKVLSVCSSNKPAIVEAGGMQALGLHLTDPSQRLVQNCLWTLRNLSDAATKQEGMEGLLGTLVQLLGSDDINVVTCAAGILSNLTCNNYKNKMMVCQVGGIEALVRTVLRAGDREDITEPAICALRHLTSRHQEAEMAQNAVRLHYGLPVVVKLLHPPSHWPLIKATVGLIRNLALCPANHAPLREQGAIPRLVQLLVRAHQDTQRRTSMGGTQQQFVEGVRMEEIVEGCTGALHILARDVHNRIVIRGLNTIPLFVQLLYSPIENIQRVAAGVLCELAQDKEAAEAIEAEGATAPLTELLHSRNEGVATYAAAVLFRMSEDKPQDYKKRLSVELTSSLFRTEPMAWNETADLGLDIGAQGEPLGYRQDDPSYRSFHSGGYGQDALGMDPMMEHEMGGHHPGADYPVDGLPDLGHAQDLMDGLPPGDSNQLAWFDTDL
Summary of the method: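 Final concentrations: 65 nM full-length human β-catenin plus 10 nM biotin-TCF4(10-53) peptide, test peptide 3-fold from 10 uM to 5 nM, preincubated 15 min at 20 °C in Tris pH 8.0/250 mM NaCl buffer. Nickel-chelate AlphaScreen donor/acceptor beads then added for 60 min in the dark; duplicate reads fitted to 1:1 binding model with Hill slope.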

[2] = molecular target: T2, full-length beta-Catenin (Uniprot ID P35222) (Homo sapiens, UniProt P35222); test: Fluorescence polarization IC50 (beta-catenin / 5FAM-TCF4 10-53 competition); type: binding
T2 construct: 10 nM full-length beta-Catenin (Uniprot ID P35222)
T2 sequence (P35222 1-781): T1 sequence (P35222 1-781)

[3] = Table E2-1, read-out: beta-Catenin FP IC50
[4] = fluorescence polarization, beta-catenin, read-out: FP EC50

Row | solubility at 15 min (Solubility in PBS) | chromatographic logD (CHI Log D procedure) | EC50 [1] | IC50 [2, 3] | IC50 [2, 4] | CHI Log D (CHI Log D procedure) | Compound
1 | 33 µM (≈ 59.9 µg/mL) | 1.31 | 8660 nM |  |  |  | CC(=O)N[C@@H](Cc1ccccc1)C(=O)N[C@@H](CC(=O)O)C(=O)N[C@@H](C)C(=O)N[C@]1(C)CCCCCCC=CCOC(=O)N2CC[C@@](C(=O)N[C@@H](Cc3ccccc3)C(=O)N[C@@H](Cc3c[nH]c4ccccc34)C(=O)N[C@@H](CCC(N)=O)C(N)=O)(C2)NC(=O)[C@H](C(C)C)NC(=O)[C@H](CC2CCCC2)NC(=O)[C@H](C)NC(=O)[C@H](C)NC(=O)[C@H](CC(=O)O)NC(=O)[C@H](CC(=O)O)NC1=O (single isomer, unassigned) [I-95, Ac-Phe-Asp-Ala-R8-Asp-Asp-Ala-Ala-CypA-Val-PyrS-Phe-Trp-Gln-NH2]
2 |  |  | 187 nM | 1870 nM | 1870 nM | 2.208 | CC(=O)N1CCC[C@]12CC=CCCCC1(CCCC=CCCCCCC[C@@](C)(C(=O)N[C@@H](Cc3ccccc3)C(=O)N[C@@H](Cc3c[nH]c4ccccc34)C(=O)N[C@@H](C)C(N)=O)NC(=O)[C@H](C(C)C)NC(=O)[C@H](Cc3ccccc3)NC(=O)[C@H](C)NC(=O)[C@H](C)NC(=O)[C@H](CC(=O)O)NC(=O)[C@H](CC(=O)O)NC1=O)NC(=O)[C@H](C)NC(=O)[C@H](CC(=O)O)NC2=O (stereo partly drawn) [I-292, Ac-PL3-Asp-Ala-B5-Asp-Asp-Ala-Ala-Phe-Val-S8-Phe-Trp-Ala-NH2]
3 |  | 2.38 | 41 nM | 139 nM |  |  | CC(=O)N1CCC[C@]12CC=CCCCC1(CCCC=CCCCCCC[C@@](C)(C(=O)N[C@@H](Cc3ccccc3)C(=O)N[C@@H](Cc3csc4ccccc34)C(=O)N[C@@H](CCC(N)=O)C(N)=O)NC(=O)[C@H](C(C)C)NC(=O)[C@H](Cc3ccccc3)NC(=O)[C@H](C)NC(=O)[C@H](C)NC(=O)[C@H](CN(CC(=O)O)CC(F)(F)F)NC(=O)[C@H](CC(=O)O)NC1=O)NC(=O)[C@H](C)NC(=O)[C@H](CC(=O)O)NC2=O (stereo partly drawn) [I-293, Ac-PL3-Asp-Ala-B5-Asp-TfeGA-Ala-Ala-Phe-Val-S8-Phe-BztA-Gln-NH2]
4 |  | 2 | 40 nM | 130 nM |  |  | CC(=O)N1CCC[C@]12CC=CCCCC1(CCCC=CCCCCCC[C@@](C)(C(=O)N[C@@H](Cc3ccccc3)C(=O)N[C@@H](Cc3csc4ccccc34)C(=O)N[C@@H](CCC(N)=O)C(N)=O)NC(=O)[C@H](CCC(N)=O)NC(=O)[C@H](Cc3ccccc3)NC(=O)[C@H](C)NC(=O)[C@H](C)NC(=O)[C@H](CC(=O)O)NC(=O)[C@H](CC(=O)O)NC1=O)NC(=O)[C@H](C)NC(=O)[C@H](CC(=O)O)NC2=O (stereo partly drawn) [I-294, Ac-PL3-Asp-Ala-B5-Asp-Asp-Ala-Ala-Phe-Gln-S8-Phe-BztA-Gln-NH2]
5 |  | 2.66 | 1180 nM | 5000 nM |  |  | CC(=O)N1CCC[C@]12CC=CCCCC1(CCCC=CCCCCCC[C@@](C)(C(=O)N[C@@H](Cc3ccccc3)C(=O)N[C@@H](Cc3csc4ccccc34)C(=O)N[C@@H](CCC(N)=O)C(N)=O)NC(=O)[C@H](CCC(N)=O)NC(=O)[C@H](Cc3ccccc3)NC(=O)[C@H](C)NC(=O)[C@H](C)NC(=O)[C@H](Cc3ccc4ccccc4c3)NC(=O)[C@H](CC(=O)O)NC1=O)NC(=O)[C@H](C)NC(=O)[C@H](CC(=O)O)NC2=O (stereo partly drawn) [I-295, Ac-PL3-Asp-Ala-B5-Asp-2NapA-Ala-Ala-Phe-Gln-S8-Phe-BztA-Gln-NH2]
6 |  | 2 | 189 nM | 1300 nM |  |  | CC(=O)N1CCC[C@]12CC=CCCCC1(CCCC=CCCCCCC[C@@](C)(C(=O)N[C@@H](Cc3ccccc3)C(=O)N[C@@H](Cc3csc4ccccc34)C(=O)N[C@@H](C)C(N)=O)NC(=O)[C@H](CCC(N)=O)NC(=O)[C@H](Cc3ccccc3)NC(=O)[C@H](C)NC(=O)[C@H](C)NC(=O)[C@H](CC(=O)O)NC(=O)[C@H](CC(=O)O)NC1=O)NC(=O)[C@H](CCO)NC(=O)[C@H](CC(=O)O)NC2=O (stereo partly drawn) [I-299, Ac-PL3-Asp-Hse-B5-Asp-Asp-Ala-Ala-Phe-Gln-S8-Phe-BztA-Ala-NH2]
7 |  |  | 181 nM | 3120 nM | 3120 nM | 2.05 | CC(=O)N1CCC[C@]12CC=CCCCC1(CCCC=CCCCCCC[C@@](C)(C(=O)N[C@@H](Cc3ccccc3)C(=O)N[C@@H](Cc3c[nH]c4ccccc34)C(=O)N[C@@H](CCC(N)=O)C(N)=O)NC(=O)[C@H](C(C)C)NC(=O)[C@H](Cc3ccc(Cl)cc3)NC(=O)[C@H](C)NC(=O)[C@H](C)NC(=O)[C@H](CC(=O)O)NC(=O)[C@H](CC(=O)O)NC1=O)NC(=O)[C@H](C)NC(=O)[C@H](CC(=O)O)NC2=O (stereo partly drawn) [I-309, Ac-PL3-Asp-Ala-B5-Asp-Asp-Ala-Ala-4C1F-Val-S8-Phe-Trp-Gln-NH2]
8 |  | 1.91 | 136 nM | 3980 nM |  |  | CC(=O)N1CCC[C@]12CC=CCCCC1(CCCC=CCCCCCC[C@@](C)(C(=O)N[C@@H](Cc3ccccc3)C(=O)N[C@@H](Cc3c[nH]c4ccccc34)C(=O)N[C@@H](C)C(N)=O)NC(=O)[C@H](CCC(N)=O)NC(=O)[C@H](Cc3ccccc3)NC(=O)[C@H](C)NC(=O)[C@H](C)NC(=O)[C@H](CC(=O)O)NC(=O)[C@H](CC(=O)O)NC1=O)NC(=O)[C@H](C)NC(=O)[C@H](CC(=O)O)NC2=O (stereo partly drawn) [I-316, Ac-PL3-Asp-Ala-B5-Asp-Asp-Ala-Ala-Phe-Gln-S8-Phe-Trp-Ala-NH2]
9 |  |  | 121 nM | 4630 nM | 4630 nM | 2.001 | CC(=O)N1CCC[C@]12CC=CCCCC1(CCCC=CCCCCCC[C@@](C)(C(=O)N[C@@H](Cc3ccccc3F)C(=O)N[C@@H](Cc3c[nH]c4ccccc34)C(=O)N[C@@H](CCC(N)=O)C(N)=O)NC(=O)[C@H](C(C)C)NC(=O)[C@H](Cc3ccccc3)NC(=O)[C@H](C)NC(=O)[C@H](C)NC(=O)[C@H](CC(=O)O)NC(=O)[C@H](CC(=O)O)NC1=O)NC(=O)[C@H](C)NC(=O)[C@H](CC(=O)O)NC2=O (stereo partly drawn) [I-318, Ac-PL3-Asp-Ala-B5-Asp-Asp-Ala-Ala-Phe-Val-S8-2FF-Trp-Gln-NH2]
10 |  |  | 54 nM | 1420 nM | 1420 nM | 2.019 | CC(=O)N1CCC[C@]12CC=CCCCC1(CCCC=CCCCCCC[C@@](C)(C(=O)N[C@@H](Cc3ccccc3F)C(=O)N[C@@H](Cc3c[nH]c4ccccc34)C(=O)N[C@@H](CCC(N)=O)C(N)=O)NC(=O)[C@H](C(C)C)NC(=O)[C@H](Cc3ccccc3)NC(=O)[C@H](C)NC(=O)[C@H](C)NC(=O)[C@H](CC(=O)O)NC(=O)[C@H](CC(=O)O)NC1=O)NC(=O)[C@H](C)NC(=O)[C@H](CC(=O)O)NC2=O (stereo partly drawn) [I-319, Ac-PL3-Asp-Ala-B5-Asp-Asp-Ala-Ala-Phe-Val-S8-2FF-Trp-Gln-NH2]
11 |  |  | 92 nM | 3470 nM | 3470 nM | 1.953 | CC(=O)N1CCC[C@]12CC=CCCCC1(CCCC=CCCCCCC[C@@](C)(C(=O)N[C@@H](Cc3ccccc3)C(=O)N[C@@H](Cc3c[nH]c4ccccc34)C(=O)N[C@@H](CCC(N)=O)C(N)=O)NC(=O)[C@H](C(C)C)NC(=O)[C@H](Cc3ccc(N)cc3)NC(=O)[C@H](C)NC(=O)[C@H](C)NC(=O)[C@H](CC(=O)O)NC(=O)[C@H](CC(=O)O)NC1=O)NC(=O)[C@H](C)NC(=O)[C@H](CC(=O)O)NC2=O (stereo partly drawn) [I-323, Ac-PL3-Asp-Ala-B5-Asp-Asp-Ala-Ala-4AmPhe-Val-S8-Phe-Trp-Gln-NH2]
12 |  | 1.98 | 53 nM | 1310 nM |  |  | CC(=O)N1CCC[C@]12CC=CCCCC1(CCCC=CCCCCCC[C@@](C)(C(=O)N[C@@H](Cc3ccccc3)C(=O)N[C@@H](Cc3c[nH]c4ccccc34)C(=O)N[C@@H](CCC(N)=O)C(N)=O)NC(=O)[C@H](C(C)C)NC(=O)[C@H](Cc3cccs3)NC(=O)[C@H](C)NC(=O)[C@H](C)NC(=O)[C@H](CC(=O)O)NC(=O)[C@H](CC(=O)O)NC1=O)NC(=O)[C@H](C)NC(=O)[C@H](CC(=O)O)NC2=O (stereo partly drawn) [I-325, Ac-PL3-Asp-Ala-B5-Asp-Asp-Ala-Ala-2Thi-Val-S8-Phe-Trp-Gln-NH2]
